Consider 13 compounds from US9242987B2, “Heterocyclyl pyrazolopyrimidine analogues as JAK inhibitors” (Cellzome Limited, priority 2009, dated 2016).

Some results are limits rather than exact numbers.

The target in one assay is T1, JAK2 (Homo sapiens, UniProt O60674).
T1 construct: endogenous in cells; host or cells: Mixed Molt4/Ramos lysate (1:2)
The experiment in a line: Kinobeads assay, JAK2. It is filed as binding. Conditions: mixed Molt4/Ramos cell lysate, dot blot detection. The protocol: (§1) The compounds of the present invention as described in the previous examples were tested in a Kinobeads™ assay as described for ZAP-70 (WO-A 2007/137867). Briefly, test compounds (at various concentrations) and the affinity matrix with the immobilized aminopyrido-pyrimidine ligand 24 were added to cell lysate aliquots and allowed to bind to the proteins in the lysate sample. After the incubation time the beads with captured proteins were separated from the lysate. Bound proteins were then eluted and the presence of JAK2 and JAK3 was detected and quantified using specific antibodies in a dot blot procedure and the Odyssey infrared detection system. Dose response curves for individual kinases were generated and IC50 values calculated. Kinobeads™ assays for ZAP-70 (WO-A 2007/137867) and for kinase selectivity profiling (WO-A 2006/134056) have been previously described.
(§2) The affinity matrix was washed two times with 15 mL of 1×DP buffer containing 0.2% NP40 (IGEPAL® CA-630, Sigma, #13021) and then resuspended in 1×DP buffer containing 0.2% NP40 (3% beads slurry).
(§3) 5×DP buffer: 250 mM Tris-HCl pH 7.4, 25% Glycerol, 7.5 mM MgCl2, 750 mM NaCl, 5 mM Na3VO4; filter the 5×DP buffer through a 0.22 μm filter and store in aliquots at −80° C. The 5×DP buffer is diluted with H2O to 1×DP buffer containing 1 mM DTT and 25 mM NaF.
(§4) Stock solutions of test compounds were prepared in DMSO. In a 96 well plate 30 μL solution of diluted test compounds at 5 mM in DMSO were prepared. Starting with this solution a 1:3 dilution series (9 steps) was prepared. For control experiments (no test compound) a buffer containing 2% DMSO was used.
(§5) Molt4 cells (ATCC catalogue number CRL-1582) and Ramos cells (ATCC catalogue number CRL-1596) were grown in 1 L Spinner flasks (Integra Biosciences, #182101) in suspension in RPMI 1640 medium (Invitrogen, #21875-034) supplemented with 10% Fetal Bovine Serum (Invitrogen) at a density between 0.15×10^6 and 1.2×10^6 cells/mL. Cells were harvested by centrifugation, washed once with 1×PBS buffer (Invitrogen, #14190-094) and cell pellets were frozen in liquid nitrogen and subsequently stored at −80° C. Cells were homogenized in a Potter S homogenizer in lysis buffer: 50 mM Tris-HCl, 0.8% NP40, 5% glycerol, 150 mM NaCl, 1.5 mM MgCl2, 25 mM NaF, 1 mM sodium vanadate, 1 mM DTT, pH 7.5. One complete EDTA-free tablet (protease inhibitor cocktail, Roche Diagnostics, 1873580) per 25 mL buffer was added. The material was dounced 10 times using a mechanized POTTER S, transferred to 50 mL falcon tubes, incubated for 30 minutes on ice and spun down for 10 minutes at 20,000 g at 4° C. (10,000 rpm in Sorvall SLA600, precooled). The supernatant was transferred to an ultracentrifuge (UZ)-polycarbonate tube (Beckmann, 355654) and spun for 1 hour at 100.000 g at 4° C. (33.500 rpm in Ti50.2, precooled). The supernatant was transferred again to a fresh 50 mL falcon tube, the protein concentration was determined by a Bradford assay (BioRad) and samples containing 50 mg of protein per aliquot were prepared. The samples were immediately used for experiments or frozen in liquid nitrogen and stored frozen at −80° C.
(§6) Cell lysate (approximately 50 mg protein per plate) was thawed in a water bath at room temperature and then stored on ice. To the thawed cell lysate 1×DP 0.8% NP40 buffer containing protease inhibitors (1 tablet for 25 mL buffer; EDTA-free protease inhibitor cocktail; Roche Diagnostics 1873580) was added in order to reach a final protein concentration of 10 mg/mL total protein. The diluted cell lysate was stored on ice. Mixed Molt4/Ramos lysate was prepared by combining one volume of Molt4 lysate and two volumes of Ramos lysate (ratio 1:2).
(§7) To a 96 well filter plate (Multiscreen HTS, BV Filter Plates, Millipore #MSBVN1250) were added per well: 100 μL affinity matrix (3% beads slurry), […], of compound solution, and 50 μL of diluted lysate. […]

For a further assay, the target named is T2, JAK3 (Homo sapiens, UniProt P52333).
T2 construct: endogenous in cells; host or cells: Mixed Molt4/Ramos lysate (1:2)
T2 sequence (P52333 1-1124): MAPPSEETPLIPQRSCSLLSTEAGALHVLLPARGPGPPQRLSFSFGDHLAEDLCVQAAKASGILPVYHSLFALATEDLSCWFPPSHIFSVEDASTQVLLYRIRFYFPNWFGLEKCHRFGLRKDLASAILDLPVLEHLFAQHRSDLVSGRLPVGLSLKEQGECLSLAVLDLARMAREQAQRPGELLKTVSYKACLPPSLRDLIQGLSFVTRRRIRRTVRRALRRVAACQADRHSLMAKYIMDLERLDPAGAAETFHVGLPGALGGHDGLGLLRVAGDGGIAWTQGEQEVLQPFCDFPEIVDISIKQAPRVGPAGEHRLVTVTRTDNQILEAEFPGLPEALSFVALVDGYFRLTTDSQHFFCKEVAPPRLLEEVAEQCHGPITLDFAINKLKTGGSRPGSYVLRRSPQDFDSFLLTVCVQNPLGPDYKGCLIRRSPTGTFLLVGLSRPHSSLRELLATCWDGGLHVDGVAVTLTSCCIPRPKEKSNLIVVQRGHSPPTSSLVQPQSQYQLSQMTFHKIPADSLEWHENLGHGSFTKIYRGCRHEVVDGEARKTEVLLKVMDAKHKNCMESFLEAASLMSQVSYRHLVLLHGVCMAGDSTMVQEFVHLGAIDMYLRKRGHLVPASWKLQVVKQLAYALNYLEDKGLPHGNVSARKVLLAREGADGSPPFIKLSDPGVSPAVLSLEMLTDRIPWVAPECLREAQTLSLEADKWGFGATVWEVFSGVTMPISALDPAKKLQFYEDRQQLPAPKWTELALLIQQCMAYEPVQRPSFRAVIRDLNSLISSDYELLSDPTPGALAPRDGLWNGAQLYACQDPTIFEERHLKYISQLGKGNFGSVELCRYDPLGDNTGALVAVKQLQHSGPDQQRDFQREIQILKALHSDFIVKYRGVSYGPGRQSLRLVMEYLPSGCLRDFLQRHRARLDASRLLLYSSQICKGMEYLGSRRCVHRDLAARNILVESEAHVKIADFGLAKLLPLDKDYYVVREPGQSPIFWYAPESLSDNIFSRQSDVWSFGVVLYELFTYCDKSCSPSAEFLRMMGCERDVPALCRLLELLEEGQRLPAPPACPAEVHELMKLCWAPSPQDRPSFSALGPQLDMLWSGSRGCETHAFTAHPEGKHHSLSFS
The assay is described as follows: Kinobeads assay, JAK3. It is filed as binding. Conditions: mixed Molt4/Ramos cell lysate, dot blot detection. As to the method: as §1, §2, §3, §4, §5, §6, §7

T1 sequence (O60674 whole entry): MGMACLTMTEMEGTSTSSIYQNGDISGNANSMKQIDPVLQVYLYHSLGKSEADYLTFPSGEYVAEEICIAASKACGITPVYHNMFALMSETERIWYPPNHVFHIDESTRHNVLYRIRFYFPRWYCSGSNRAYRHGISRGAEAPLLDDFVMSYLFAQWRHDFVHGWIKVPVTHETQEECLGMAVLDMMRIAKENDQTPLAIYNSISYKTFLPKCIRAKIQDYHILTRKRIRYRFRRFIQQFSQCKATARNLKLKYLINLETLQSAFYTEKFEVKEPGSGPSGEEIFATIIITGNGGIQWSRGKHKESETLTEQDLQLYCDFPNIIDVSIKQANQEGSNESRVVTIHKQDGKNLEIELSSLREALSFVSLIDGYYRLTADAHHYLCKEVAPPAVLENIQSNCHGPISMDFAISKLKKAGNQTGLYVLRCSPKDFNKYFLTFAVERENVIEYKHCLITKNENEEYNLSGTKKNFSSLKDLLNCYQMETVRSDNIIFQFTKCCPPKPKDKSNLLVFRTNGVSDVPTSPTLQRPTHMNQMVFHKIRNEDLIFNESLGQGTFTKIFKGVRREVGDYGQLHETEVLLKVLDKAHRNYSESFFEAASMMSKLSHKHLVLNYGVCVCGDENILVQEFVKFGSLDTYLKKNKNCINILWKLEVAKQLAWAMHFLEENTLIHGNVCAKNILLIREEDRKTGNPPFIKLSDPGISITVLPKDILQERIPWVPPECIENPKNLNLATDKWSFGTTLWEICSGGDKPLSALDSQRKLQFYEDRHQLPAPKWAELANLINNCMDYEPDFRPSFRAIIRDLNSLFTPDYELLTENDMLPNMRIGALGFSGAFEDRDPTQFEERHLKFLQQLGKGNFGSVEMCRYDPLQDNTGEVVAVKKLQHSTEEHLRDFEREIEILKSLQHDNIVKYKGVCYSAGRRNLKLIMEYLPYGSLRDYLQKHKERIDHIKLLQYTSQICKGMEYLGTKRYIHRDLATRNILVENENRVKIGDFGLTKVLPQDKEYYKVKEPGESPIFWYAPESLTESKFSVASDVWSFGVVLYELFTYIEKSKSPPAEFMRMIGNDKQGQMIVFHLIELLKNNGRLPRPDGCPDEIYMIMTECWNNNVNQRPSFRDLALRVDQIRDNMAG

In the case of `CCCn1cc(Nc2ncc3cnn(Cc4ccccc4C#N)c3n2)c(C)n1` [Example 21, 2-((6-(3-Methyl-1-propyl-1H-pyrazol-4-ylamino)-1H-pyrazolo[3,4-d]pyrimidin-1-yl)methyl)benzonitrile], the IC50 against JAK2 was not below 10 µM; against JAK3, 0.1 to 1 µM.
On the same counts, the results for `Cc1nn(CC(F)F)cc1Nc1ncc2cnn(Cc3ccccc3C#N)c2n1` [Example 22, 2-((6-(1-(2,2-Difluoroethyl)-3-methyl-1H-pyrazol-4-ylamino)-1H-pyrazolo[3,4-d]pyrimidin-1-yl)methyl)benzonitrile] are not below 10 µM and less than 0.1 µM.
With `COCCn1cc(Nc2ncc3cnn(Cc4ccccc4C#N)c3n2)c(C)n1` [Example 23, 2-((6-(1-(2-methoxyethyl)-3-methyl-1H-pyrazol-4-ylamino)-1H-pyrazolo[3,4-d]pyrimidin-1-yl)methyl)benzonitrile], the IC50 was not below 10 µM on JAK2 and 0.1 to 1 µM at JAK3.
As for `COc1nn(CC(F)F)cc1Nc1ncc2cnn(Cc3ccccc3C#N)c2n1` [Example 24, 2-((6-(1-(2,2-Difluoroethyl)-3-methoxy-1H-pyrazol-4-ylamino)-1H-pyrazolo[3,4-d]pyrimidin-1-yl)methyl)benzonitrile], the figures for the IC50 on JAK2 and on JAK3 were not below 10 µM and less than 0.1 µM, respectively.
Turning to `N#Cc1ccccc1Cn1ncc2cnc(Nc3cnn(CCO)c3)nc21` [Example 25, 2-((6-(1-(2-Hydroxyethyl)-1H-pyrazol-4-ylamino)-1H-pyrazolo[3,4-d]pyrimidin-1-yl)methyl)benzonitrile], the IC50 against JAK2 was 1 to 10 µM; at JAK3, less than 0.1 µM.
Consider `CC(c1ccccc1F)n1ncc2cnc(Nc3cnn(C)c3)nc21` (centres unmarked) [Example 26, 1-(1-(2-Fluorophenyl)ethyl)-N-(1-methyl-1H-pyrazol-4-yl)-1H-pyrazolo[3,4-d]pyrimidin-6-amine], for which the IC50 against JAK2 was not below 10 µM; at JAK3, 0.1 to 1 µM.
For the compound `Cn1cc(Nc2ncc3cnn(Cc4ccccc4Cl)c3n2)cn1` [Example 27, 1-(2-Chlorobenzyl)-N-(1-methyl-1H-pyrazol-4-yl)-1H-pyrazolo[3,4-d]pyrimidin-6-amine], the IC50 on JAK2 was 1 to 10 µM; against JAK3 it was less than 0.1 µM.
For the compound `COCCn1cc(Nc2ncc3cnn(Cc4ccccc4F)c3n2)cn1` [Example 28, 1-(2-Fluorobenzyl)-N-(1-(2-methoxyethyl)-1H-pyrazol-4-yl)-1H-pyrazolo[3,4-d]pyrimidin-6-amine], the IC50 on JAK2 is 1 to 10 µM; against JAK3, less than 0.1 µM.
For `Cn1cc(Nc2ncc3cnn(Cc4c(F)cccc4F)c3n2)cn1` [Example 29, 1-(2,6-Difluorobenzyl)-N-(1-methyl-1H-pyrazol-4-yl)-1H-pyrazolo[3,4-d]pyrimidin-6-amine], the IC50 against JAK2 is 1 to 10 µM; on JAK3, less than 0.1 µM.
On the same counts, the results for `Cn1cc(Nc2ncc3cnn(Cc4cc(F)ccc4F)c3n2)cn1` [Example 30, 1-(2,5-Difluorobenzyl)-N-(1-methyl-1H-pyrazol-4-yl)-1H-pyrazolo[3,4-d]pyrimidin-6-amine] are less than 0.1 µM and less than 0.1 µM.
Take `Cn1cc(Nc2ncc3cnn(Cc4cccc(F)c4F)c3n2)cn1` [Example 31, 1-(2,3-Difluorobenzyl)-N-(1-methyl-1H-pyrazol-4-yl)-1H-pyrazolo[3,4-d]pyrimidin-6-amine]: the IC50 was 1 to 10 µM on JAK2 and less than 0.1 µM against JAK3.
Take `OCCn1cc(Nc2ncc3cnn(Cc4cc(F)ccc4F)c3n2)cn1` [Example 32, 2-(4-(1-(2,5-Difluorobenzyl)-1H-pyrazolo[3,4-d]pyrimidin-6-ylamino)-1H-pyrazol-1-yl)ethanol]: the IC50 at JAK2 and against JAK3 was less than 0.1 µM each time.
Take `OCCn1cc(Nc2ncc3cnn(Cc4cccc(F)c4F)c3n2)cn1` [Example 33, 2-(4-(1-(2,3-Difluorobenzyl)-1H-pyrazolo[3,4-d]pyrimidin-6-ylamino)-1H-pyrazol-1-yl)ethanol]: the figures for the IC50 against JAK2 and against JAK3 were 0.1 to 1 µM and less than 0.1 µM, respectively.
